According to publication PMC10747733, “N-Substituted 2-(Benzenosulfonyl)-1-Carbotioamide Derivatives Exert Antimicrobial and Cytotoxic Effects via Aldehyde Dehydrogenase Pathway: Synthesis, In Silico and In Vitro Studies” (Pharmaceuticals, 2023):
In brackets after ≈: the same amount, converted by molar mass.

Columns and labels:
[1] = tested on: Bacillus cereus ATCC 10876; experiment: Broth microdilution antimicrobial activity; type: cell-based; settings: for MBC / MIC: ATCC10876
Source text: (§1) Reference strains of microorganisms that came from American Type Culture Collection (ATCC) (Manassas, VA, USA) were used for this study. The representative Gram-positive bacteria were as follows: Staphylococcus aureus ATCC 25923, Staphylococcus aureus ATCC 29213, Staphylococcus aureus ATCC 43300, Staphylococcus epidermidis ATCC 12228, Enterococcus faecalis ATCC 29212, Micrococcus luteus ATCC 10240, Bacillus subtilis ATCC 6633 and Bacillus cereus ATCC 10876. While, those of Gram-negative bacteria were as follows: Bordetella bronchiseptica ATCC 4617, Escherichia coli ATCC 25922, Klebsiella pneumoniae ATCC 13883, Proteus mirabilis ATCC 12453, Salmonella Typhimurium ATCC 14028 and Pseudomonas aeruginosa ATCC 9027. Moreover, the following fungi belonging to yeasts were used: Candida albicans ATCC 10231, Candida albicans ATCC 2091, Candida parapsilosis ATCC 22019, Candida glabrata ATCC 90030 and Candida krusei ATCC 14243.
(§2) The new compounds WZ1–WZ4 were assayed for both antibacterial and antifungal activity using the broth microdilution method in accordance with the European Committee on Antimicrobial Susceptibility Testing (EUCAST) and Clinical and Laboratory Standards Institute (CLSI) guidelines. The microorganisms were grown at 35 °C for 18–24 h on appropriate media (nutrient agar and Sabouraud for bacteria and fungi, respectively) (BioMaxima S.A., Lublin, Poland). Next, microbial suspensions with an optical density of 0.5 McFarland standard scale (in sterile 0.85% NaCl) were prepared. In turn, the tested compounds were initially diluted at 50 mg/mL in dimethyl sulfoxide (DMSO) and the broth microdilution method was used to assess their minimum inhibitory concentrations (MICs). For these studies, selective broth Mueller-Hinton (MH) (BioMaxima S.A., Lublin, Poland) and RPMI (Roswell Park Memorial Institute) 1640 with MOPS (3-(N-Morpholino)propanesulfonic acid) (Sigma-Aldrich Chemicals, St. Louis, MO, USA) were used for bacteria and fungi, respectively. The antimicrobial effect of compounds WZ1–WZ4 was determined in the concentration range from 2000 to 0.98 µg/mL.
(§3) Then, the microbial suspensions were introduced into each well of the microplate and incubated for 18–24 h at 35 °C. […] The reference drugs ciprofloxacin or vancomycin (against bacteria) and nystatin (against fungi) (Sigma-Aldrich Chemicals, St. Louis, MO, USA) were also used. Next, the values of the minimum bactericidal concentration (MBC) and minimum fungicidal concentration (MFC) of WZ1–WZ4 were assessed. For this purpose, the cultures from each MIC determination well were transferred to a suitable solid medium and incubated under appropriate conditions. The lowest concentrations of compounds without microbial growth were read as MBC or MFC. The studies were performed in triplicate and representative data were gathered.
(§4) In turn, the MBC/MIC or MFC/MIC ratios were used to assess bactericidal/fungicidal (MBC/MIC or MFC/MIC ≤ 4) and bacteriostatic/fungistatic (MBC/MIC or MFC/MIC > 4) effect of these compounds [93].

[2] = tested on: Candida albicans ATCC 10231; experiment: Broth microdilution antimicrobial activity; type: cell-based; settings: for MFC: ATCC10231, read-out: MFC; for MIC: ATCC10231, read-out: MIC
Source text: as §1, §2, §3, §4

[3] = tested on: Candida glabrata ATCC 90030; experiment: Broth microdilution antimicrobial activity; type: cell-based; settings: for MFC / MIC: Nakaseomyces glabratus; for MFC: ATCC90030, read-out: MFC; for MIC: ATCC90030, read-out: MIC
Source text: as §1, §2, §3, §4

[4] = tested on: Micrococcus luteus ATCC 10240; experiment: Broth microdilution antimicrobial activity; type: cell-based; settings: for MBC / MIC: ATCC10240
Source text: as §1, §2, §3, §4

[5] = tested on: Proteus mirabilis ATCC 12453; experiment: Broth microdilution antimicrobial activity; type: cell-based; settings: for MBC / MIC: ATCC12453
Source text: as §1, §2, §3, §4

[6] = tested on: Salmonella Typhimurium ATCC 14028; experiment: Broth microdilution antimicrobial activity; type: cell-based; settings: for MBC / MIC: Salmonella enterica
Source text: as §1, §2, §3, §4

ALDH1A1 = ALDH1A1 concentration by ELISA in 769-P cells; type: cell-based, human
Protocol: The effect of compounds WZ1–WZ4 on ALDHA1 levels was investigated (Figure 10). The Du145, HepG2 and 769-P cell lines were treated with the calculated IC25 values for each compound.
Selected cell lines, viz HepG2, Du145 and 769-P, were seeded into 6-well plates and incubated for 24 h after seeding with compounds at a concentration equal to IC25. After a further 24 h or 48 h, cells were detached with trypsin and centrifuged. The resulting cell pellet was resuspended in 0.5 mL PBS. The samples were then sonicated, and protein was determined using the Bradford method (Bio-rad; Hercules, CA, USA). Samples were equilibrated to 10 mg/mL of protein, and ALDH1A1 was determined in the samples prepared in this way. ALDH1A1 determination was performed using an ELISA (SEE824Hu; Cloud Clone Corp., Katy, TX, USA), according to the manufacturer’s protocol.

O=S(=O)(NNC(=S)NC1CCCCC1)c1ccccc1 [WZ1, 2-(Benzenesulfonyl)-N-Cyclohexylhydrazine-1-Carbothioamide]
MBC/MIC [1]: > 4 | MBC [1]: > 2000 µg/mL | MIC [1]: 500 µg/mL (≈ 1.6 mM) | MFC/MIC [2]: > 1 | MFC [2]: > 2000 µg/mL | MIC [2]: > 2000 µg/mL | MFC/MIC [3]: > 1 | MFC [3]: > 2000 µg/mL | MIC [3]: > 2000 µg/mL | MBC/MIC [4]: > 4 | MBC [4]: > 2000 µg/mL | MIC [4]: 500 µg/mL (≈ 1.6 mM) | MBC/MIC [5]: > 1 | MBC [5]: > 2000 µg/mL | MIC [5]: > 2000 µg/mL | MBC/MIC [6]: > 1 | MBC [6]: > 2000 µg/mL | MIC [6]: > 2000 µg/mL | ALDH1A1 concentration compared to control (ALDH1A1; compound at IC25, 24 h): decrease

CCCCNC(=S)NNS(=O)(=O)c1ccccc1 [WZ2, 2-(Benzenesulfonyl)-N-Butylhydrazine-1-Carbothioamide]
MBC/MIC [1]: 2 | MBC [1]: 2000 µg/mL (≈ 6.96 mM) | MIC [1]: 1000 µg/mL (≈ 3.48 mM) | MFC/MIC [2]: > 1 | MFC [2]: > 2000 µg/mL | MIC [2]: 2000 µg/mL (≈ 6.96 mM) | MFC/MIC [3]: > 1 | MFC [3]: > 2000 µg/mL | MIC [3]: > 2000 µg/mL | MBC/MIC [4]: 2 | MBC [4]: 2000 µg/mL (≈ 6.96 mM) | MIC [4]: 1000 µg/mL (≈ 3.48 mM) | MBC/MIC [5]: > 1 | MBC [5]: > 2000 µg/mL | MIC [5]: > 2000 µg/mL | MBC/MIC [6]: > 1 | MBC [6]: > 2000 µg/mL | MIC [6]: > 2000 µg/mL | ALDH1A1 concentration compared to control (ALDH1A1; compound at IC25, 24 h): no significant changes | ALDH1A1 concentration compared to control (ALDH1A1; compound at IC25, 48 h): significant decrease

CCCCCCNC(=S)NNS(=O)(=O)c1ccccc1 [WZ3, 2-(Benzenesulfonyl)-N-Hexylhydrazine-1-Carbothioamide]
MBC/MIC [1]: 1 | MBC [1]: 250 µg/mL (≈ 0.792 mM) | MIC [1]: 250 µg/mL (≈ 0.792 mM) | MFC/MIC [2]: 2 | MFC [2]: 1000 µg/mL (≈ 3.17 mM) | MIC [2]: 500 µg/mL (≈ 1.58 mM) | MFC/MIC [3]: 1 | MFC [3]: 2000 µg/mL (≈ 6.34 mM) | MIC [3]: 2000 µg/mL (≈ 6.34 mM) | MBC/MIC [4]: 2 | MBC [4]: 500 µg/mL (≈ 1.58 mM) | MIC [4]: 250 µg/mL (≈ 0.792 mM) | MBC/MIC [5]: > 2 | MBC [5]: > 2000 µg/mL | MIC [5]: 1000 µg/mL (≈ 3.17 mM) | MBC/MIC [6]: > 2 | MBC [6]: > 2000 µg/mL | MIC [6]: 1000 µg/mL (≈ 3.17 mM) | ALDH1A1 concentration compared to control (ALDH1A1; compound at IC25, 24 h): increase

CNC(=S)NNS(=O)(=O)c1ccccc1 [WZ4, 2-(Benzenesulfonyl)-N-Methylhydrazine-1-Carbothioamide]
MBC/MIC [1]: 2 | MBC [1]: 125 µg/mL (≈ 0.51 mM) | MIC [1]: 62.5 µg/mL (≈ 0.255 mM) | MFC/MIC [2]: 2 | MFC [2]: 1000 µg/mL (≈ 4.08 mM) | MIC [2]: 500 µg/mL (≈ 2.04 mM) | MFC/MIC [3]: 4 | MFC [3]: 500 µg/mL (≈ 2.04 mM) | MIC [3]: 125 µg/mL (≈ 0.51 mM) | MBC/MIC [4]: 2 | MBC [4]: 500 µg/mL (≈ 2.04 mM) | MIC [4]: 250 µg/mL (≈ 1.02 mM) | MBC/MIC [5]: > 1 | MBC [5]: > 2000 µg/mL | MIC [5]: > 2000 µg/mL | MBC/MIC [6]: > 1 | MBC [6]: > 2000 µg/mL | MIC [6]: > 2000 µg/mL | ALDH1A1 concentration compared to control (ALDH1A1; compound at IC25, 24 h): decrease | ALDH1A1 concentration compared to control (ALDH1A1; compound at IC25, 48 h): significant decrease
